Holding throughout (format): cell-based
The subject of one series is HIV-1/181-Cys. Put plainly: Inhibition of HIV-1 induced syncytium formation in CEM cells, RT mutant 181-Cys. The settings on record: Human immunodeficiency virus 1, CCRF-CEM, 96 h, Table 2B, day 4, averages of 2 to 3 independent experiments, read-out: Antiviral Activity of Comparative Compounds EC50, 181-Cys. The text has this: (§1) CEM cells were obtained from the American Tissue Cell Culture Collection (Rockville, Md.). HIV-1(IIIB) was originally obtained from the culture supernatant of persistently HIV-1-infected H9 cells and was provided by R. C. Gallo and M. Popovic (National Cancer Institute, National Institutes of Health, Bethesda, Md.). […] 67: 5353-5359 (1993); HIV-1/Lys-138 ("Lys-138") was selected for resistance against TSAO-m^3T as described in Balzarini et al, Virology 192: 246-253 (1993) and Balzarini et al, Proc. Nat. Acad. Sci. USA 90: 6952-6956 (1993); HIV-1/181-Cys ("181-Cys") was selected for resistance against pyridinone L-697,661 as described in Balzarini et al, Virology 192: 246-253 (1993); and HIV-1/188-His ("188-His") was selected for resistance against HEPT as described in Balzarini et al, Mol. Pharmocol. 44: 694-701 (1993). 188-His was then further converted to HIV-1/188-Leu "188-Leu") upon further passage in cell culture in the absence of the HEPT.
(§2) CEM cells were suspended at ≈300,000 cells per ml of culture medium and infected with approximately 100 CCID50 (CCID50 being the 50% cell culture infective dose) of HIV-1(IIIB) or one of the HIV-1 RT mutant strains described above. Then 100 μl of the infected cell suspensions was added to 200 μl microtiter plate wells containing 100 μl of appropriate serial (5-fold) dilutions of the test compounds. The inhibitory effect of the test compounds on HIV-1 induced syncytium formation in CEM cells was examined microscopically on day 4 post infection.

The next series deals with HIV-1/100-Ile. Kind of series: Inhibition of HIV-1 induced syncytium formation in CEM cells, RT mutant 100-Ile. The note with it: Human immunodeficiency virus 1, CCRF-CEM, 96 h, Table 2B, day 4, averages of 2 to 3 independent experiments, read-out: Antiviral Activity of Comparative Compounds EC50, 100-Ile.
Excerpt: as §1, §2

A short description of a further series: in vitro. The settings on record: human, cem cells, CC50 (50% cytostatic concentration), Table 2B; CEM cell proliferation; averages of 2 to 3 independent experiments.
Excerpt: as §1
^b 50% cytostatic concentration (i.e., compound concentration require
to inhibit CEM cell proliferation by 50%)

Another series has as its system HIV-1/Lys-138. Put plainly: Inhibition of HIV-1 induced syncytium formation in CEM cells, RT mutant 138-Lys. The note with it: Human immunodeficiency virus 1, CCRF-CEM, 96 h, Table 2B, day 4, averages of 2 to 3 independent experiments, read-out: Antiviral Activity of Comparative Compounds EC50, 138-Lys.
Excerpt: as §1, §2

The subject of another series is HIV-1(IIIB). Put plainly: Inhibition of HIV-1 induced syncytium formation in CEM cells, wild type. The settings on record: Human immunodeficiency virus 1, IIIB, CCRF-CEM, 96 h, Table 2B, WT = HIV-1(IIIB), day 4, averages of 2 to 3 independent experiments, read-out: Antiviral Activity of Comparative Compounds EC50, WT.
Excerpt: as §1, §2

For another series, the system named is HIV-1/106-Ala. Put plainly: Inhibition of HIV-1 induced syncytium formation in CEM cells, RT mutant 106-Ala. The note with it: Human immunodeficiency virus 1, CCRF-CEM, 96 h, Table 2B, day 4, averages of 2 to 3 independent experiments, read-out: Antiviral Activity of Comparative Compounds EC50, 106-Ala.
Excerpt: as §1, §2

≈ marks a conversion by molar mass, not a printed value.

For the molecule `CC(C)OC(=O)c1cc(NC(=S)c2ccccc2N)ccc1Cl` [Compound 85], the EC50 was determined as 5.3 µg/mL (≈ 15.2 µM) with HIV-1/181-Cys; 6 µg/mL (≈ 17.2 µM) in the series on HIV-1/100-Ile; 5.5 µg/mL (≈ 15.8 µM) in the series on HIV-1/Lys-138; 0.5 µg/mL (≈ 1.43 µM) with HIV-1(IIIB); 7.5 µg/mL (≈ 21.5 µM) with HIV-1/106-Ala. In “in vitro”, half-maximal cytotoxicity (CC50) was put at 6.7 µg/mL (≈ 19.2 µM).
On to `Cc1ccccc1C(=S)Nc1ccc(Cl)c(C(=O)OC2CCCCC2)c1` [Compound 71], for which the EC50 with HIV-1/181-Cys was found to be 1.6 µg/mL (≈ 4.12 µM); with HIV-1/100-Ile it was 0.6 µg/mL (≈ 1.55 µM); with HIV-1/Lys-138, 3 µg/mL (≈ 7.73 µM); with HIV-1(IIIB), 0.049 µg/mL (≈ 0.126 µM); in the series on HIV-1/106-Ala it was 3 µg/mL (≈ 7.73 µM). In addition, in the series “in vitro”, the midpoint of cytotoxicity, the CC50, lay at 4 µg/mL (≈ 10.3 µM).
Take `CCC(CC)OC(=O)c1cc(NC(=S)c2ccccc2N)ccc1Cl` [Compound 67]: the EC50 with HIV-1/181-Cys was above 10 µg/mL; in the series on HIV-1/100-Ile, at least 10 µg/mL; in the series with HIV-1/Lys-138, 5.5 µg/mL (≈ 14.6 µM); in the series on HIV-1(IIIB) it was 0.75 µg/mL (≈ 1.99 µM); in the series on HIV-1/106-Ala, at least 10 µg/mL. The molecule further displayed a cytotoxic concentration (CC50) in the series “in vitro” of 29 µg/mL (≈ 76.9 µM).
Regarding `CC(C)OC(=O)c1cc(NC(=S)c2ccsc2)ccc1Cl` [Compound 92], the EC50 amounted to 0.37 µg/mL (≈ 1.09 µM) in the series with HIV-1/181-Cys; 0.4 µg/mL (≈ 1.18 µM) with HIV-1/100-Ile; 0.5 µg/mL (≈ 1.47 µM) with HIV-1/Lys-138; 0.02 µg/mL (≈ 0.0588 µM) with HIV-1(IIIB); 0.75 µg/mL (≈ 2.21 µM) with HIV-1/106-Ala. In the series “in vitro”, the CC50 was 4.3 µg/mL (≈ 12.7 µM).
In the case of `O=C(OC1CCCCC1)c1cc(NC(=S)c2ccccc2)ccc1Cl` [Compound 82], the EC50 in the series on HIV-1/181-Cys came out at 0.8 µg/mL (≈ 2.14 µM); with HIV-1/100-Ile, 2 µg/mL (≈ 5.35 µM); in the series on HIV-1/Lys-138 it was 0.55 µg/mL (≈ 1.47 µM); in the series with HIV-1(IIIB), 0.03 µg/mL (≈ 0.0802 µM); with HIV-1/106-Ala, 1 µg/mL (≈ 2.67 µM). In “in vitro”, half-maximal cytotoxicity (CC50) was put at 5.2 µg/mL (≈ 13.9 µM).
In the case of `Cc1occc1C(=S)Nc1ccc(Cl)c(COC(C)(C)C)c1` [Compound 53], the EC50 in the series on HIV-1/181-Cys was found to be 0.55 µg/mL (≈ 1.63 µM); in the series on HIV-1/100-Ile, 0.85 µg/mL (≈ 2.52 µM); in the series with HIV-1/Lys-138 it was 0.08 µg/mL (≈ 0.237 µM); with HIV-1(IIIB) it was 0.03 µg/mL (≈ 0.0888 µM); in the series with HIV-1/106-Ala, 0.29 µg/mL (≈ 0.858 µM). The molecule also showed a CC50 in “in vitro” of 18 µg/mL (≈ 53.3 µM).
With `CC(C)OC(=O)c1cc(NC(=S)c2ccccc2)ccc1Cl` [Compound 63], the EC50 with HIV-1/181-Cys is 5 µg/mL (≈ 15 µM); in the series on HIV-1/100-Ile, 4.5 µg/mL (≈ 13.5 µM); in the series with HIV-1/Lys-138, 2.2 µg/mL (≈ 6.59 µM); in the series with HIV-1(IIIB) it was 0.05 µg/mL (≈ 0.15 µM); in the series with HIV-1/106-Ala, 5 µg/mL (≈ 15 µM). For the same molecule, it took 4.3 µg/mL (≈ 12.9 µM) to reach half-maximal cytotoxicity in “in vitro” (CC50).
In the case of `Cc1ccsc1C(=S)Nc1ccc(Cl)c(C(=O)OC(C(C)C)C(C)C)c1` [Compound 101], the concentration for a half-maximal effect (EC50) came out at 0.55 µg/mL (≈ 1.34 µM) in the series with HIV-1/181-Cys; 3 µg/mL (≈ 7.32 µM) in the series with HIV-1/100-Ile; 0.33 µg/mL (≈ 0.805 µM) in the series with HIV-1/Lys-138; 0.045 µg/mL (≈ 0.11 µM) in the series on HIV-1(IIIB); 0.2 µg/mL (≈ 0.488 µM) with HIV-1/106-Ala. In “in vitro”, this molecule showed a CC50 of at least 100 µg/mL.
With `Cc1occc1C(=O)Nc1ccc(Cl)c(C(=O)OC(C)C)c1` [Compound 48], the EC50 in the series on HIV-1/181-Cys came to 6 µg/mL (≈ 18.6 µM); with HIV-1/100-Ile it was 6.5 µg/mL (≈ 20.2 µM); in the series with HIV-1/Lys-138, 3.5 µg/mL (≈ 10.9 µM); in the series on HIV-1(IIIB), 0.45 µg/mL (≈ 1.4 µM); in the series with HIV-1/106-Ala it was 6.5 µg/mL (≈ 20.2 µM). Also, it took 3.8 µg/mL (≈ 11.8 µM) to reach half-maximal cytotoxicity in “in vitro” (CC50).
Take `CC(C)C(OC(=O)c1cc(NC(=S)c2cccn2C)ccc1Cl)C(C)C` [Compound 100]: the EC50 in the series on HIV-1/181-Cys was 0.65 µg/mL (≈ 1.65 µM); in the series with HIV-1/100-Ile it was 4 µg/mL (≈ 10.2 µM); in the series on HIV-1/Lys-138, 0.4 µg/mL (≈ 1.02 µM); in the series with HIV-1(IIIB), 0.03 µg/mL (≈ 0.0763 µM); in the series on HIV-1/106-Ala it was 0.8 µg/mL (≈ 2.04 µM). Moreover, the CC50 in “in vitro” was above 100 µg/mL.
In the case of `C=CC(C)(C)OC(=O)c1cc(NC(=S)c2ccoc2C)ccc1Cl` [Compound 110], the EC50 worked out at 0.5 µg/mL (≈ 1.37 µM) with HIV-1/181-Cys; 4 µg/mL (≈ 11 µM) with HIV-1/100-Ile; 0.1 µg/mL (≈ 0.275 µM) in the series with HIV-1/Lys-138; 0.04 µg/mL (≈ 0.11 µM) with HIV-1(IIIB); 0.2 µg/mL (≈ 0.55 µM) in the series on HIV-1/106-Ala. The molecule also registered a CC50 in “in vitro” of 25 µg/mL (≈ 68.7 µM).
For the molecule `COc1ccccc1C(=S)Nc1ccc(Cl)c(C(=O)OC2CCCC2)c1` [Compound 69], the EC50 with HIV-1/181-Cys was 3.5 µg/mL (≈ 8.98 µM); in the series with HIV-1/100-Ile, 0.65 µg/mL (≈ 1.67 µM); in the series on HIV-1/Lys-138, 0.55 µg/mL (≈ 1.41 µM); with HIV-1(IIIB), 0.04 µg/mL (≈ 0.103 µM); in the series with HIV-1/106-Ala, 0.65 µg/mL (≈ 1.67 µM). In the series “in vitro”, this molecule gave a CC50 of 10 µg/mL (≈ 25.6 µM).

Values taken from patent US5696151A, “Compounds useful for the inhibition of the replication of HIV-1 and HIV-1 mutants” (priority 1995, dated 1997).
